Results taken from patent US5658939A, “Methionine sulfone and S-substituted cysteine sulfone derivatives as enzyme inhibitors” (Corvas International Inc., priority 1995, dated 1997).
Where two headings read alike, the source gives them in different places.

Key:
[1] = target: Purified human alpha-thrombin (Homo sapiens, UniProt P00734); assay: in vitro thrombin inhibition assay, IC50 (chromogenic substrate Pefachrome t-PA); type: biochemical; conditions: Table 1; 0.25 nM thrombin, 300 μM substrate, pH 7.5, 30 minute incubation
Experimental: (§1) The ability of the compounds of the present invention to act as inhibitors of thrombin and plasmin catalytic activity was assessed by determining the concentration which inhibited enzyme activity by 50%, (IC50), using the purified human enzymes.
(§2) The buffer used for all assays was HBSA (10 mM HEPES, pH 7.5, 150 mM sodium chloride, 0.1% bovine serum albumin).
(§3) The assay for IC50 determinations was conducted by combining in appropriate wells of a Corning microtiter plate, 50 microliters of HBSA, 50 microliters of the test compound at a specified concentration (covering a broad concentration range) diluted in HBSA (or HBSA alone for Vo (uninhibited velocity) measurement), and 50 microliters of the enzyme diluted in HBSA. Following a 30 minute incubation at ambient temperature, 50 microliters of the substrate at the concentrations specified below, was added to the wells yielding a final total volume of 200 microliters. The initial velocity of chromogenic substrate hydrolysis was measured by the change in absorbance at 405 nm using a Thermo Max® Kinetic Microplate Reader over a 5 minute period in which less than 5% of the added substrate was utilized. The concentration of added inhibitor which caused a 50% decrease in the initial rate of hydrolysis was defined as the IC50 value.
Thrombin catalytic activity was determined using the chromogenic substrate Pefachrome t-PA (CH3 SO2 -D-hexahydrotyrosine-glycyl-L-arginine-p-nitroaniline, obtained from Pentapharm Ltd.). The substrate was made up in deionized water followed by dilution in HBSA prior to the assay in which the final concentration was 300 μM (about 10-times Km). Purified human alpha-thrombin was obtained from Enzyme Research Laboratories, Inc. The enzyme was diluted into HBSA prior to the assay in which the final concentration was 0.25 nM.

Purified human plasmin = Purified human plasmin (Homo sapiens, UniProt P00747); assay: in vitro plasmin inhibition assay, IC50 (chromogenic substrate S-2251); type: biochemical; conditions: Table 1; 1.0 nM plasmin, 300 μM substrate, pH 7.5, 30 minute incubation
Purified human plasmin, sequence (P00747 581-810 limits assumed): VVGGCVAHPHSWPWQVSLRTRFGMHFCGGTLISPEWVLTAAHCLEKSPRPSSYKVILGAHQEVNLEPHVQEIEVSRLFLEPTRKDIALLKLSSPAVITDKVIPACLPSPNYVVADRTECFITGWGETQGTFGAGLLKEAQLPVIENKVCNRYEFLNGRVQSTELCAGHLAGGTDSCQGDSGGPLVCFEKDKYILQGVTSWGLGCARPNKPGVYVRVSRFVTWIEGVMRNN
Purified human plasmin, sequence (P00747 97-580 limits assumed): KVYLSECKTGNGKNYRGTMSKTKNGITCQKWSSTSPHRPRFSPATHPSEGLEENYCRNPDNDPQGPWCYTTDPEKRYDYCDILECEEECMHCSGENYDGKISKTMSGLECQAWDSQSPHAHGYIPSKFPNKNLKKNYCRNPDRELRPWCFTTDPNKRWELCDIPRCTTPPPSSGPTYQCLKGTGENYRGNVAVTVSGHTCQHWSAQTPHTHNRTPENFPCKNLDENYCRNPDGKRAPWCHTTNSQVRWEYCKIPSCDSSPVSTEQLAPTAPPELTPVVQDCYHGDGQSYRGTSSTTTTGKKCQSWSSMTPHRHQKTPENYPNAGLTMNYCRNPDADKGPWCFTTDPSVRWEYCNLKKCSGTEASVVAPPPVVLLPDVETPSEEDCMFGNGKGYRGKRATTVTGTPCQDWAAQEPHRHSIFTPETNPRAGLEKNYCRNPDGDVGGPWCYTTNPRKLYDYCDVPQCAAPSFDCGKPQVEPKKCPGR
Experimental: as §1, §2, §3
Plasmin catalytic activity was determined using the chromogenic substrate, S-2251 [D-valyl-L-leucyl-L-lysine-p-nirtoanilide dihydrochloride], which was obtained from Kabi Diagnostica. The substrate was made up in deionized water followed by dilution in HBSA prior to the assay in which the final concentration was 300 μM (about 5-times Km). Purified human plasmin was obtained from Enzyme Research Laboratories, Inc. The enzyme was diluted into HBSA prior to assay in which the final concentration was 1.0 nM.

human alpha-thrombin = human alpha-thrombin (Homo sapiens, UniProt P00734); assay: Determination of inhibition constant Ki for thrombin (steady state velocities, Pefachrome t-PA); type: biochemical
Experimental: The ability of the compounds of the present invention to act as inhibitors of thrombin catalytic activity was assessed by determining their inhibition constant, Ki.
Enzyme activity was determined using the chromogenic substrate Pefachrome t-PA (CH3 SO2 -D-hexahydrotyrosine-glycyl-L-arginine-p-nitroaniline), obtained from Pentapharm Ltd. The substrate was reconstituted in deionized water prior to use. Purified human alpha-thrombin (3000U/mg specific activity) was obtained from Enzyme Research Laboratories, Inc. The buffer used for all assays was HBSA (10 mM HEPES, pH 7.5, 150 mM sodium chloride, 0.1% bovine serum albumin).
Velocities of chromogenic substrate hydrolysis which occurred over 40 minutes was measured by the change in absorbance at 405 nm using a Thermo Max® Kinetic Microplate Reader.
Ki values were determined for test compounds using the relationships developed by Williams and Morrison, Methods in Enzymology, 63:437 (1979) using steady state velocities (Vs) measured over 40 minutes. The extent of substrate hydrolysis was less than 5% over the course of this assay.
Table 2 below gives the Ki values for selected test compounds.

rat carotid artery = assay: Rat model of FeCl3-induced platelet-dependent arterial thrombosis; type: in vivo, rat (Male Harlan Sprague Dawley); conditions: for ED50: read-out: ED50 for thrombus prevention
Excerpt: In this model a platelet-rich, occlusive thrombus is formed in a segment of the rat carotid artery treated locally with a fresh solution of FeCl3 absorbed to a piece of filter paper. The FeCl3 is thought to diffuse into the treated segment of artery and causes de-endothelialization of the affected vessel surface. […] The effect of a test compound on the incidence of occlusive thrombus formation following the application of the FeCl3 is monitored by ultrasonic flowtometry and is used as the primary end point. […] Male Harlan Sprague Dawley rats (420-450 g) were acclimated at least 72 hours prior to use and fasted for 12 hours prior to surgery with free access to water. The animals were prepared, anesthetized with Nembutal followed by the insertion of catheters for blood pressure monitoring, drug and anesthesia delivery. The left carotid artery was isolated by making a midline cervical incision followed by blunt dissection and spreading techniques to separate a 2 cm segment of the vessel from the carotid sheath. A silk suture was inserted under the proximal and distal ends of the isolated vessel to provide clearance for the placement of a ultrasonic flow probe (Transonic) around the proximal end of the vessel. The probe was then secured with a stationary arm. […] The test compound was administered as a single intravenous bolus at the doses outlined in Table 3 after placement of the flow probe and 5 minutes prior to the application of the FeCl3 thrombogenic stimulus (t=0). […] Blood pressure, blood flow, heart rate, and respiration were monitored for 60 minutes. The incidence of occlusion (defined as the attainment of zero blood flow) was recorded as the primary end point.

rat plasma = assay: activated partial thromboplastin time (APTT) in citrated rat plasma; type: biochemical; conditions: control clotting time 19.75 sec
Experimental: (§4) The ex Vivo anticoagulant effects of BzlSO2 -Met[S(O2)]-Pro-Arg-al was determined by measuring the prolongation of the activated partial thromboplastin time (APTT) over a broad concentration range of the added inhibitor, using pooled normal human and rat plasma. Fresh frozen citrated pooled normal human plasma was obtained from George King Biomedical, Overland Park, Kans. Pooled normal rat plasma was prepared from citrated whole blood collected from anesthetized rats using standard procedures. The plasma was flash frozen and stored at -80° C. until use. Measurements APTT was made using the Coag-A-Mate RA4 automated coagulometer (General Diagnostics, Organon Technica, Oklahoma City, Okla.) using the Automated APTT reagent (Organon Technica, Durham, N.C.) as the initiator of clotting according to the manufacturer's instructions.
(§5) The assay was conducted by making a series of dilutions of the test compounds in rapidly thawed plasma followed by adding 200 microliters to the wells of the assay carousel.
(§6) The elevation in APTT due to increasing concentration of compound is presented relative to the control clotting time for rat (19.75 sec) and human (28.3 sec) plasma which is set to a value of 1.0.

human plasma = assay: activated partial thromboplastin time (APTT) in citrated human plasma; type: biochemical; conditions: control clotting time 28.3 sec
Experimental: as §4, §5, §6

[2] = Table 2, human alpha-thrombin 0.5 nM, steady state velocities over 40 minutes, read-out: Inhibitor Constants (Ki)

| Compound | IC50 [1] [nM] | IC50 (Purified human plasmin) [nM] | also measured |
| --- | --- | --- | --- |
| N=C(N)NCCC[C@@H](C=O)NC(=O)[C@@H]1CCCN1C(=O)[C@H](CSCC(=O)O)NS(=O)(=O)Cc1ccccc1 | 13 | 490 |  |
| CCCC(CCC)C(=O)N[C@@H](CS(=O)(=O)CC(=O)O)C(=O)N1CCC[C@H]1C(=O)N[C@H](C=O)CCCNC(=N)N [Example 59, N-(2-propylpentanoyl)-S-(carboxymethyl)-L-cysteine sulfone-L-proline-L-argininal] | 1.6 | 220 |  |
| CS(=O)(=O)C[C@H](NS(=O)(=O)c1ccc2ccccc2c1)C(=O)N1CCC[C@H]1C(=O)N[C@H](C=O)CCCNC(=N)N [Example 46, N-(2-naphthalenesulfonyl)-S-methyl-L-cysteine sulfone-L-proline-L-argininal] | 1.4 | > 250 |  |
| N=C(N)NCCC[C@@H](C=O)NC(=O)[C@@H]1CCCN1C(=O)[C@H](CS(=O)(=O)Cc1ccc(C(=O)O)cc1)NS(=O)(=O)Cc1ccccc1 [Example 139, N-benzylsulfonamide-L-cysteine-S-sulfone-(p-toluic acid) -L-proline-argininal aldehyde] | 1.7 | 250 to 2500 |  |
| COC(=O)CS(=O)(=O)C[C@H](NS(=O)(=O)c1ccc2ccccc2c1)C(=O)N1CCC[C@H]1C(=O)N[C@H](C=O)CCCNC(=N)N [Example 69, N-(2-naphthylenesulfonyl)-S-(methyl acetate)-L-cysteine sulfone-L-proline-L-argininal] | 0.56 | 61 |  |
| CS(=O)(=O)CC[C@H](NS(=O)(=O)NC1CCCCC1)C(=O)N1CCC[C@H]1C(=O)N[C@H](C=O)CCCNC(=N)N [ChxNH--SO2 --Met[S(O2)]--Pro--Arg-al] | 146 | 2600 |  |
| CCCCS(=O)(=O)N[C@@H](CCS(C)(=O)=O)C(=O)N1CCC[C@H]1C(=O)N[C@H](C=O)CCCNC(=N)N [Example 11, N-(1-butanesulfonyl)-L-methioninesulfone-L-proline-L-argininal] | 1.6 | 199 |  |
| COC(=O)c1ccccc1S(=O)(=O)N[C@@H](CCS(C)(=O)=O)C(=O)N1CCC[C@H]1C(=O)N[C@H](C=O)CCCNC(=N)N [2-CMPhSO2 --Met[S(O2)]--Pro--Arg-al] | 0.81 | 200 |  |
| CC1(C)[C@@H]2CC[C@@]1(CS(=O)(=O)N[C@@H](CCS(C)(=O)=O)C(=O)N1CCC[C@H]1C(=O)N[C@H](C=O)CCCNC(=N)N)C(=O)C2 [d-Camphor--SO2 --Met[S(O2)]--Pro--Arg-al] | 2.6 | 30 |  |
| CCCC(CCC)C(=O)N[C@@H](CCS(C)(=O)=O)C(=O)N1CCC[C@H]1C(=O)N[C@H](C=O)CCCNC(=N)N [Example 33, N-(2-propylpentanoyl)-L-methionine sulfone-L-proline-L-argininal] | 5.5 | 500 | Ki (human alpha-thrombin; [2]): 4 nM |
| CS(=O)(=O)CC[C@H](NS(=O)(=O)c1ccc2ccccc2c1)C(=O)N1CCC[C@H]1C(=O)N[C@H](C=O)CCCNC(=N)N [Example 24, N-(2-naphthylenesulfonyl)-L-methionine sulfone-L-proline-L-argininal] | 0.58 | 35 | Ki (human alpha-thrombin; [2]): 0.135 nM |
| CC1CNc2c(cccc2S(=O)(=O)N[C@@H](CCCNC(=N)N)C(=O)N2CC[C@@H](C)C[C@@H]2C(=O)O)C1 (stereo partly drawn) [Argatroban, 2R,4R-4-methyl-1-[N-2-(3-methyl-1,2,3,4-tetrahydro-8-quinolinesulfonyl)-L-argininal]-2-piperdinecarboxylic acid, reference compound] |  |  | ED50 (rat carotid artery; dose that prevents the incidence of complete thrombotic occlusion in 50% of animals tested, FeCl3 model, rat): 3.8 mg/kg |
| N=C(N)NCCC[C@@H](C=O)NC(=O)[C@@H]1CCCN1C(=O)[C@H](CS(=O)(=O)CC(=O)O)NS(=O)(=O)Cc1ccccc1 [Example 56, N-benzylsulfonyl-S-(carboxymethyl)-L-cysteine sulfone-L-proline-L-argininal] | 13 | 490 |  |
| CS(=O)(=O)CC[C@H](NS(=O)(=O)Cc1ccccc1)C(=O)N1CCC[C@H]1C(=O)N[C@H](C=O)CCCNC(=N)N [Example 27, N-benzylsulfonyl-L-methionine sulfone-L-proline-L-argininal] | 1 | 86 | prolongation of APTT (rat plasma): prolonged the APTT in a dose dependent manner; Ki (human alpha-thrombin; [2]): 1.06 nM; Ki (human alpha-thrombin; Table 4, determined using human alphathrombin (footnote a), read-out: Ki): 1.06 nM; prolongation of APTT (human plasma): prolonged the APTT in a dose dependent manner; incidence of thrombotic occlusion (in words) (rat carotid artery; FeCl3 model, rat, over all doses of Table 3): reduction in the incidence of thrombotic occlusion; ED50 (rat carotid artery; Rattus norvegicus): 0.7 mg/kg |
| CCCCS(=O)(=O)N[C@@H](CS(=O)(=O)CC(=O)O)C(=O)N1CCC[C@H]1C(=O)N[C@H](C=O)CCCNC(=N)N | 3 | 110 |  |
| CCCCS(=O)(=O)N[C@@H](CS(C)(=O)=O)C(=O)N1CCC[C@H]1C(=O)N[C@H](C=O)CCCNC(=N)N [Example 40, N-(1-butanesulfonyl)-S-methyl-L-cysteine Sulfone-L-proline-L-argininal] | 1.8 | > 250 |  |
| CCCC(CCC)C(=O)N[C@@H](CS(=O)(=O)Cc1ccc(C(=O)O)cc1)C(=O)N1CCC[C@H]1C(=O)N[C@H](C=O)CCCNC(=N)N [Example 144, N-2-propylpentylamide-L-cysteine-S-sulfone (p-toluic acid) -L-proline-arginal aldehyde] | 0.742 | 388 |  |
| CCCC(CCC)C(=O)N[C@@H](CS(C)(=O)=O)C(=O)N1CCC[C@H]1C(=O)N[C@H](C=O)CCCNC(=N)N [Example 43, N-(2-propylpentanoyl)-S-methyl-L-cysteine sulfone-L-proline-L-argininal] | 5.1 | 2800 |  |
| CS(=O)(=O)CC[C@H](NS(=O)(=O)c1cccc2ccccc12)C(=O)N1CCC[C@H]1C(=O)N[C@H](C=O)CCCNC(=N)N [Example 21, N-(1-naphthylenesulfonyl)-L-methionine sulfone-L-proline-L-argininal] | 0.78 | > 25 |  |
| CS(=O)(=O)CC[C@H](NS(=O)(=O)CC1CCCCC1)C(=O)N1CCC[C@H]1C(=O)N[C@H](C=O)CCCNC(=N)N [Example 18, N-cyclohexylmethanesulfonyl-L-methionine sulfone-L-proline-L-argininal] | 0.66 | 30 |  |
| CS(=O)(=O)C[C@H](NS(=O)(=O)c1cccc2ccccc12)C(=O)N1CCC[C@H]1C(=O)N[C@H](C=O)CCCNC(=N)N [Example 49, N-(1-naphthalenesulfonyl)-S-methyl-L-cysteine sulfone-L-proline-L-argininal] | 3.1 | 250 |  |
